Data set [1] deals with Plasmodium falciparum. In words: Antiplasmodial activity against Plasmodium falciparum 3D7 infected in erythrocytes assessed as parasite growth inhibition measured after 72 hrs by LDH assay. Format: functional, organism-based. Particulars: 3D7, Erythrocyte.
The test system of data set [2] is HepG2. In words: Cytotoxicity against human HepG2 cells. In kind it is cell-based.
The subject of data set [3] is Leishmania infantum. In words: Antileishmanial activity against axenic amastigote stage of Leishmania infantum infected in THP-1 cells assessed as reduction in parasite growth at 10 uM incubated for 72 hrs by luminescence analysis. In kind it is functional, organism-based.
Data set [4] can be described thus: Cytotoxicity against human THP-1 cells assessed as reduction in cell viability measured after 72 hrs by MTT assay. Format: cell-based. A general note: Tetrazolium dyes change colour on reduction, which living cells bring about.
The subject of data set [5] is Trypanosoma brucei. In words: Antitrypanosomal activity against bloodstream form of Trypanosoma brucei Lister 427 assessed as parasite growth inhibition incubated for 72 hrs by resazurin staining based assay. In kind it is functional, organism-based. Particulars: Lister 427, 72 h.
Data set [6] relates to Hemozoin. In words: Inhibition of Beta-hematin formation at 24 to 96 uM after 24 hrs by microplate reader assay. Particulars: dose 24-96 µM.
The nature of data set [7]: Selectivity index, ratio of CC50 for cytotoxicity against human THP-1 cells to IC50 for antitrypanosomal activity against bloodstream form of Trypanosoma brucei Lister 427. In kind it is toxicity, cell-based. Particulars: read-out: Ratio CC50/IC50.
Data set [8] in a line: Hemolytic activity against human erythrocytes at <=10 uM incubated for 1 hr by microplate reader assay. In kind it is ADME, tissue-based. Particulars: erythrocyte.
Data set [9] has as its system Plasmodium falciparum. In words: Antimalarial activity against CQ-sensitive Plasmodium falciparum 3D7 assessed as parasite growth inhibition incubated for 48 hrs by SYBR Green I dye based fluorescence assay. Format: functional, organism-based. Particulars: 3D7, 48 h.
Data set [10] in a line: Cytotoxicity against Chinese hamster V79 cells measured after 24 hrs by MTT assay. Format: cell-based, Cricetulus griseus. Particulars: V79 cells, read-out: LD50.
The nature of data set [11]: Hemolytic activity against human erythrocytes at 0.04 to 10 uM incubated for 1 hr by microplate reader assay. Particulars: dose 0.04-10 µM, read-out: Activity. In kind it is ADME, tissue-based, Erythrocyte.
Data set [12] is described as follows: Selectivity index, ratio of LD50 for cytotoxicity against Chinese hamster V79 cells to IC50 for antimalarial activity against CQ-sensitive Plasmodium falciparum 3D7. In kind it is toxicity, cell-based. The note with it: V79 cells versus Plasmodium falciparum 3D7, read-out: Ratio LD50/IC50.

pEC50, pIC50: −log10 of the molar value. Activity calls are given as the source filed them. The calls are words filed in the database; no cut-off is given here.

The term pEC50 denotes −log10 of the EC50, conventionally taken in molar units. Turning to `Clc1ccc2nccc(N3CCC(CN4CCC(c5c[nH]c6ccccc56)CC4)CC3)c2c1`, the figures for the pEC50 in data set [1] and in data set [2] were 7.47 and < 5.00, respectively.

What is called pIC50 is the IC50 on a negative log10 scale, so that one unit is a factor of ten. `CC(C)C[C@@H]1NC(=O)[C@@H](Cc2c[nH]c3ccccc23)n2c1nc1cc(Cl)c(Cl)cc1c2=O`: the inhibition entry in [3] and in data set [6] was “inactive” each time. Moreover, the CC50 at 72 h in data set [4] was determined as 25 µM. The pIC50 in data set [5] was 5.23; in [9], 6.70. Moreover, the selectivity ratio in data set [7] was 4.2; in [12] it was 70. The Activity result in data set [8] is on record as “Non-Toxic”. The CC50 at 24 h in data set [10] is 14 µM. Besides, the hemolysis at 1 h, up to 10 µM in data set [11] is < 6%.

The values above are taken from ChEMBL document CHEMBL5036370, “Indole-Containing Pyrazino[2,1-b]quinazoline-3,6-diones Active against Plasmodium and Trypanosomatids” (ACS Med Chem Lett, 2022).
